Measurements from patent US20060293395A1, “Methods for treating a mammal before, during and after cardiac arrest” (priority 2004, published 2006).
Entries after “also recorded” stand apart in the source; their conditions may differ.

Assays:
Male Sprague-Dawley rats = test: Example 4: levosimendan bolus during cardiopulmonary resuscitation (VF cardiac arrest); format: in vivo, rat; conditions: for ETCO2 / Negative dP/dt / left ventricular diastolic pressure: post-resuscitation (FIG. 23)
Protocol: No anesthetic agents were initially administrated 30 min prior to inducing cardiac arrest. […] Right atrial pressure was measured with a high-sensitivity pressure transducer (model 42584-01; Abbott Critical Care System, North Chicago, Ill.). […] Blood temperature was measured with this sensor. […] Duplicate thermodilution curves were obtained and recorded with the aid of a cardiac output computer (CO-100; Institute of Critical Care Medicine, Palm Springs, Calif.). A PE 50 catheter was advanced through the left femoral artery into the thoracic aorta for sampling arterial blood for analysis of blood gases and for the measurement of aortic pressure with a high-sensitivity pressure transducer (model 42584-01; Abbott Critical Care System). Systolic, diastolic, and the interpreted mean arterial pressure were continuously recorded. […] A 4F polyethylene catheter (model C-PMS-401J; Cook Critical Care, Bloomington, Ind.) was next advanced through the right external jugular vein into the right atrium for inducing VF. A precurved guide wire, supplied with the catheter, was then advanced through the catheter into the right ventricle until an endocardial electrogram was observed. […] Current flow was then reduced to one half and continued for 3 min such as to prevent spontaneous defibrillation. VF was untreated for six min. […] Precordial compressions were performed with a pneumatically driven mechanical chest compressor. These procedures were previously described in greater detail (Von Planta I, supra) and are well-known to those of ordinary skill in the art (see e.g. Tang W, Weil M H, Sun S, Noc M, Yang L, Gazmuri R. Epinephrine increases the severity of postresuscitation myocardial dysfunction. Circulation 1995; 92: 3089-3093 and Sun S, Weil MH, Tang W, Povoas H, Mason E. Combined effect of buffer and adrenergic agent on postresuscitation myocardial function. Pharmacology 1999; 291 (2): 773-777).
Coincident with start of precordial compression, the animals were mechanically ventilated.

rats = test: Example 1: feasibility studies and dose titration of levosimendan; format: in vivo, rat
male domestic pigs = test: Levosimendan on post-resuscitation myocardial function after beta-adrenergic blockade (propranolol); format: in vivo, pig; conditions: levosimendan added early postresuscitation after propranolol, in comparison with propranolol alone
Protocol: Anesthesia was initiated by intramuscular injection of ketamine (20 mg/kg) and completed by ear vein injection of sodium pentobarbital (30 mg/kg). Additional doses of sodium pentobarbital (8 mg/kg) were injected to maintain anesthesia at intervals of one hour. A cuffed endotracheal tube was advanced into the trachea. Animals were mechanically ventilated with a volume-controlled ventilator (Model MA-1, Puritan-Bennett, Carlsbad, Calif.) with a tidal volume of 15 mL/kg, peak flow of 40 L/min, and FiO2 of 0.21. End-tidal PCO2 (ETCO2) was monitored with an infrared analyzer (Model 01R-7101A, Nihon Kohden Corp, Tokyo, Japan). Respiratory frequency was adjusted to maintain PETCO2 between 35 and 40 mm Hg.
For the measurement of left ventricular functions, a 5.5/7.5 […] biplane with Doppler transesophageal echocardiographic transducer with 4-way flexure (Model 21363A, Hewlett-Packard Co., Medical Products Group, Andover, Mass.) was advanced from the incisor teeth into the esophagus for a distance of approximately 35 cm. For the measurement of aortic pressure, a fluid-filled catheter was advanced from the left femoral artery into the thoracic aorta. For the measurements of right atrial, pulmonary arterial pressures and blood temperature, a 7-French, pentalumen, thermodilution-tipped catheter was advanced from the left femoral vein and flow-directed into the pulmonary artery. A 7-French catheter was advanced from the left cephalic vein into the great cardiac vein for the measurement of great cardiac vein blood gases and lactate. For inducing VF, a 5-French pacing catheter (EP Technologies, Inc., Mountain View, Calif.) was advanced from the right cephalic vein into the right ventricle.
The investigators were blinded to the randomization. Cardiac arrest was induced with 1 to 2 mA AC delivered to the endocardium of the right ventricle. Mechanical ventilation was discontinued after onset of VF. At the end of the 7-min interval of untreated VF, precordial compression was started with a pneumatic piston-driven chest compressor (Thumper, Model 1000, Michigan Instruments, Grand Rapids, Mich.). […] The compression force was adjusted to decrease the anterior-posterior diameter of the chest by 25%. After 5 min of precordial compression, defibrillation was attempted with a 150 J biphasic waveform shock delivered between the right infraclavicular area and the cardiac apex. If an organized cardiac rhythm with mean aortic pressure of more than 60 mm Hg persisted for an interval of 5 min or more, the animal was regarded as successfully resuscitated. All animals had restoration of spontaneous circulation (ROSC) after electrical defibrillation, and were then randomized to three treatment groups: (1) propranolol (0.1 mg/kg bolus at 6 min of VF); (2) propranolol plus levosimendan (at 10 min after post resuscitation, 20 μg/kg over 10 min followed by 0.4 μg/kg/min for 220 min); and (3) equal volumes of saline as placebo.
Measurements were obtained over an interval of 4 hours following resuscitation. After 4 hours, animals were euthanized by intravenous injection of 150 mg kg^−1 pentobarbital. Autopsy was performed to document injuries to the bony thorax and the thoracic and abdominal viscera.

[1] = 20 μg/kg bolus during VF, vs placebo
[2] = 4-hour interval following resuscitation, vs saline placebo (FIG. 22)
[3] = 12 μg levosimendan followed by 0.3 μg/kg/min, comparable to 3 μg/kg/min dobutamine

## C[C@@H]1CC(=O)NN=C1c1ccc(NN=C(C#N)C#N)cc1 [Levosimendan]
Male Sprague-Dawley rats; [1]
  cumulative number of electrical shocks required for successful defibrillation: significantly less
  interval of CPR prior to successful resuscitation: significantly shorter
Male Sprague-Dawley rats; [2]
  MAP: Significantly greater; also recorded: increases
  cardiac index: Significantly greater; also recorded: increases
  dP/dt40: Significantly greater; also recorded: increases
Male Sprague-Dawley rats; levosimendan vs placebo controls, prior to/or after administration
  CPP: No differences
Male Sprague-Dawley rats; post-resuscitation
  ST segment elevation: lesser
Male Sprague-Dawley rats
  ETCO2: increases
  Negative dP/dt: increases
  left ventricular diastolic pressure: decreased
Male Sprague-Dawley rats; listed as levosimendan
  ETCO2: increased
  Negative dP/dt: increased
  left ventricular diastolic pressure: reduction
Male Sprague-Dawley rats; vs placebo
  duration of post-resuscitation survival: significantly increased
Male Sprague-Dawley rats; vs saline placebo (FIG. 24)
  peripheral arterial resistance (PAR): significantly decreased
rats; [3]
  arterial pressure: declines in arterial pressure
  cardiac output: increases in cardiac output
rats; higher doses of levosimendan
  arterial pressure: decreases in arterial pressure
  cardiac output: additional increases in cardiac output
  heart rate: increases in heart rate
Male domestic pigs
  EF: additional and significant increases
  FAC: additional and significant increases
